Test results from ChEMBL document CHEMBL2177022, “Novel acidic 11β-hydroxysteroid dehydrogenase type 1 (11β-HSD1) inhibitor with reduced acyl glucuronide liability: the discovery of 4-[4-(2-adamantylcarbamoyl)-5-tert-butyl-pyrazol-1-yl]benzoic acid (AZD8329)” (J Med Chem, 2012).
pIC50: −log10 of the molar value.

Experiments:
[1] = Oral bioavailability in rat; format: ADME, organism-based; details: in vivo
[2] = Lipophilicity, log D at pH 7.4 by shake flask method; details: buffer
[3] = Percentage unbound in rat plasma at 37 degC by equilibrium dialysis method; format: ADME, cell-free
in vivo = details: rat
[4] = Intrinsic clearance in rat hepatocytes assessed per 10^6 cells
[5] = Drug metabolism in bile duct cannulated rat bile assessed as oxidative metabolism level during 0 to 6 hrs post dose by metabolism-ID study; format: ADME; details: in vivo
[6] = Drug metabolism in bile duct cannulated rat urine assessed as ratio of glucuronidation to oxidative metabolism level during 0 to 6 hrs post dose by metabolism-ID study; format: ADME, tissue-based; details: in vivo
[7] = Drug metabolism in dog hepatocytes assessed as oxidative metabolism level by metabolism-ID study; format: ADME, cell-based, Canis lupus familiaris, Hepatocyte
[8] = Inhibition of N-terminal 6-His tagged full length cynomolgus monkey 11betaHSD1 incubated for 25 mins by HTRF assay; design: species or system Macaca fascicularis
Hepatocyte [9] = assay: Drug metabolism in human hepatocytes assessed as ratio of glucuronidation to oxidative metabolism level by metabolism-ID study; format: ADME, cell-based
Hepatocyte [10] = assay: Drug metabolism in rat hepatocytes assessed as ratio of glucuronidation to oxidative metabolism level by metabolism-ID study; format: ADME, cell-based
[11] = Drug metabolism in bile duct cannulated rat bile assessed as ratio of glucuronidation to oxidative metabolism level during 0 to 6 hrs post dose by metabolism-ID study; format: ADME; details: in vivo
[12] = Stability in bile duct cannulated rat urine assessed as parent compound remaining measured during 0 to 6 hrs post dose; format: ADME, tissue-based; details: in vivo
[13] = Stability in bile duct cannulated rat bile assessed as parent compound remaining measured during 0 to 6 hrs post dose; format: ADME; details: in vivo
[14] = Drug metabolism in dog hepatocytes assessed as ratio of glucuronidation to oxidative metabolism level by metabolism-ID study; format: ADME, cell-based, Canis lupus familiaris, Hepatocyte
[15] = Inhibition of N-terminal 6-His tagged full length dog 11betaHSD1 incubated for 25 mins by HTRF assay; design: species or system Canis lupus familiaris
[16] = Drug metabolism in bile duct cannulated rat urine assessed as oxidative metabolism level during 0 to 6 hrs post dose by metabolism-ID study; format: ADME, tissue-based; details: in vivo

SMILES: O=C(O)c1ccc(-n2ncc(C(=O)NC3C4CC5CC(C4)CC3C5)c2C2CCCC2)cc1 (centres undefined)
- bioavailability [1]: > 100%
- logD [2]: 1.7
- fraction unbound [3]: 0.004

SMILES: O=C(O)c1ccc(-n2ncc(C(=O)NC3C4CC5CC(C4)CC3C5)c2C2CC2)cc1 (centres undefined)
- bioavailability [1]: 51%
- logD [2]: 0.9
- clearance (in vivo): 14 mL/min/kg
- fraction unbound [3]: 0.045
- hepatocyte CLint [4]: 15 µL/min/1e6 cells

SMILES: CC(C)c1c(C(=O)NC2C3CC4CC(C3)CC2C4)cnn1-c1ccc(C(=O)O)cc1 (centres undefined)
- bioavailability [1]: 53%
- logD [2]: 1.2
- clearance (in vivo): 2.2 mL/min/kg
- fraction unbound [3]: 0.036
- hepatocyte CLint [4]: < 2 µL/min/1e6 cells

SMILES: O=C(O)c1ccc(-n2ncc(C(=O)NC3C4CC5CC(C4)CC3C5)c2C2CCC2)cc1 (centres undefined)
- bioavailability [1]: > 100%
- clearance (in vivo): 1.3 mL/min/kg
- fraction unbound [3]: 0.012
- hepatocyte CLint [4]: < 3 µL/min/1e6 cells

SMILES: O=C(O)c1ccc(-n2cc(C(=O)NC3C4CC5CC(C4)CC3C5)cn2)cc1 (centres undefined)
- fraction unbound [3]: 0.107
- hepatocyte CLint [4]: 6.6 µL/min/1e6 cells

SMILES: CCCSc1c(C(=O)N[C@H]2C3CC4CC2C[C@](S(C)(=O)=O)(C4)C3)cnn1-c1ccc(C(=O)O)cc1
- bioavailability [1]: 7%
- logD [2]: < 0.5
- fraction unbound [3]: 0.134

SMILES: O=C(O)c1ccc(-n2ncc(C(=O)NC3C4CC5CC(C4)CC3C5)c2SC2CCCC2)cc1 (centres undefined)
- bioavailability [1]: 57%
- logD [2]: 2.6
- clearance (in vivo): 3.3 mL/min/kg
- fraction unbound [3]: 0.0015
- hepatocyte CLint [4]: 14 µL/min/1e6 cells

SMILES: CCCSc1ncccc1C(=O)NC1CCCCC1
- logD [2]: 3.2

SMILES: CC1(c2c(C(=O)NC3C4CC5CC(C4)CC3C5)cnn2-c2ccc(C(=O)O)cc2)CC1 (centres undefined)
- bioavailability [1]: > 100%
- logD [2]: 1.1
- clearance (in vivo): 19 mL/min/kg
- fraction unbound [3]: 0.033
- hepatocyte CLint [4]: 11 µL/min/1e6 cells

SMILES: CCSc1c(C(=O)NC2C3CC4CC(C3)CC2C4)cnn1-c1ccc(C(=O)O)cc1 (centres undefined)
- bioavailability [1]: 65%
- logD [2]: 1.5
- clearance (in vivo): 3 mL/min/kg
- fraction unbound [3]: 0.0131
- hepatocyte CLint [4]: 6 µL/min/1e6 cells

SMILES: O=C(O)c1ccc(-n2ncc(C(=O)NC3C4CC5CC(C4)CC3C5)c2SC2CCCCC2)cc1 (centres undefined)
- bioavailability [1]: 82%
- logD [2]: 3
- clearance (in vivo): 3.6 mL/min/kg
- fraction unbound [3]: 0.0013
- hepatocyte CLint [4]: 9.4 µL/min/1e6 cells

SMILES: CCCSc1c(C(=O)NC2CCCCC2)cnn1[C@H]1CC[C@@H](C(=O)O)CC1
- bioavailability [1]: 49%
- logD [2]: 1.4
- clearance (in vivo): 43 mL/min/kg
- hepatocyte CLint [4]: 58 µL/min/1e6 cells

SMILES: CCCSc1c(C(=O)N[C@H]2C3CC4CC2C[C@](OC)(C4)C3)cnn1-c1ccc(C(=O)O)cc1
- bioavailability [1]: 54%
- logD [2]: < 0.5
- clearance (in vivo): 13 mL/min/kg
- fraction unbound [3]: 0.285
- hepatocyte CLint [4]: < 2 µL/min/1e6 cells

SMILES: CSc1c(C(=O)NC2C3CC4CC(C3)CC2C4)cnn1-c1ccc(C(=O)O)cc1 (centres undefined)
- bioavailability [1]: 64%
- logD [2]: 1.2
- clearance (in vivo): 11 mL/min/kg
- fraction unbound [3]: 0.0336
- hepatocyte CLint [4]: < 2 µL/min/1e6 cells

SMILES: CCCSc1c(C(=O)N[C@H]2C3CC4CC2C[C@](OC(F)F)(C4)C3)cnn1-c1ccc(C(=O)O)cc1
- bioavailability [1]: 40%
- logD [2]: 1.2
- clearance (in vivo): 9.4 mL/min/kg
- fraction unbound [3]: 0.026
- hepatocyte CLint [4]: 18 µL/min/1e6 cells

SMILES: CCCSc1c(C(=O)NC2CCCCC2)cnn1C
- bioavailability [1]: 0%
- logD [2]: 3
- fraction unbound [3]: 0.132

SMILES: CCc1c(C(=O)NC2C3CC4CC(C3)CC2C4)cnn1-c1ccc(C(=O)O)cc1 (centres undefined)
- bioavailability [1]: > 100%
- logD [2]: 0.9
- fraction unbound [3]: 0.06

SMILES: CCCSc1c(C(=O)NC2CCCCC2)cnn1-c1ccc(C(=O)O)cc1
- bioavailability [1]: 72%
- logD [2]: 0.6
- clearance (in vivo): 4.5 mL/min/kg
- fraction unbound [3]: 0.04
- hepatocyte CLint [4]: < 3 µL/min/1e6 cells

SMILES: CCCSc1nc(N2CCC[C@@H](CC(=O)O)C2)ccc1C(=O)NC1CCCCC1 [AZD-4017]
- Drug metabolism [5]: 10%
- Ratio [6]: 2.4
- Drug metabolism [7]: 13%
- pIC50 [8]: 7.54
- Ratio (Hepatocyte [9]): 6
- Ratio (Hepatocyte [10]): 2.1
- Ratio [11]: 7.5
- Stability [12]: 4%
- Stability [13]: 15%
- Ratio [14]: 4.1
- pIC50 [15]: 5.42
- Drug metabolism [16]: 28%

SMILES: Cc1c(C(=O)NC2C3CC4CC(C3)CC2C4)cnn1-c1ccc(C(=O)O)cc1 (centres undefined)
- bioavailability [1]: > 100%
- clearance (in vivo): 8 mL/min/kg
- fraction unbound [3]: 0.127
- hepatocyte CLint [4]: < 3 µL/min/1e6 cells

SMILES: CCCSc1c(C(=O)NC2CCCCC2)cnn1[C@H]1CC[C@H](C(=O)O)CC1
- bioavailability [1]: 100%
- logD [2]: 1
- clearance (in vivo): 2.5 mL/min/kg
- fraction unbound [3]: 0.093
- hepatocyte CLint [4]: 7.5 µL/min/1e6 cells

SMILES: CCCSc1c(C(=O)NC2CCCCC2)cnn1-c1cccc(C(=O)O)c1
- bioavailability [1]: > 100%
- logD [2]: 0.7
- clearance (in vivo): 17 mL/min/kg
- fraction unbound [3]: 0.02
- hepatocyte CLint [4]: 17 µL/min/1e6 cells

SMILES: CCCSc1c(C(=O)NC2C3CC4CC(C3)CC2C4)cnn1-c1ccc(C(=O)O)cc1 (centres undefined)
- bioavailability [1]: 45%
- logD [2]: 1.8
- fraction unbound [3]: 0.005

SMILES: CCCSc1c(C(=O)N(C)C2CCCCC2)cnn1-c1ccc(C(=O)O)cc1
- bioavailability [1]: 26%
- logD [2]: 0.6
- clearance (in vivo): 8.1 mL/min/kg
- fraction unbound [3]: 0.025
- hepatocyte CLint [4]: 26 µL/min/1e6 cells

SMILES: CCCSc1c(C(=O)N[C@H]2C3CC4CC2C[C@](O)(C4)C3)cnn1-c1ccc(C(=O)O)cc1
- bioavailability [1]: 10%
- logD [2]: -0.4
- clearance (in vivo): 20 mL/min/kg
- fraction unbound [3]: 0.105
- hepatocyte CLint [4]: < 2 µL/min/1e6 cells

SMILES: O=C(O)c1ccc(-n2ncc(C(=O)NC3C4CC5CC(C4)CC3C5)c2C(F)(F)F)cc1 (centres undefined)
- bioavailability [1]: > 100%
- fraction unbound [3]: 0.045
